Results taken from ChEMBL document CHEMBL5724914, “Linking interpersonal differences in gut microbiota composition and drug biotransformation activity” (2024).

Tests used:
[1] = (§1) The drug is tested on Z-028 corresponding to mouse gut metagenome with ENA study accession number: PRJEB37062 and ENA sample accession number: ERS12561827 for biotransformation under anaerobic condition. The drug concentrations were measured over 9 timepoints collected between 0 and 24 hours of incubation by liquid-chromatography-coupled mass spectrometry (LC–MS); settings: 2 µM
[2] = as §1, with “Z-013” for “Z-028”, “rabbit” for “mouse”, “ERS12561813” for “ERS12561827”; settings: 2 µM
[3] = human gut metagenome, 24 h, 2 µM
[4] = as §1, with “Z-006” for “Z-028”, “ERS12561806” for “ERS12561827”; settings: 2 µM
[5] = as §1, with “Z-022” for “Z-028”, “ERS12561821” for “ERS12561827”; settings: 2 µM
[6] = as §1, with “WLS-086” for “Z-028”, “human” for “mouse”, “ERS12561752” for “ERS12561827”; settings: 2 µM
[7] = human gut metagenome, 24 h, 2 µM; remark: listed apart in the source
[8] = as §1, with “WLS-310” for “Z-028”, “human” for “mouse”, “ERS12561785” for “ERS12561827”; settings: 2 µM
[9] = as §1, with “Z-012” for “Z-028”, “to” for “to mouse gut”, “ERS12561812” for “ERS12561827”; settings: 2 µM
[10] = human gut metagenome, 24 h, 2 µM; remark: listed apart in the source
[11] = human gut metagenome, 24 h, 2 µM; remark: listed apart in the source
[12] = human gut metagenome, 24 h, 2 µM; remark: listed apart in the source
[13] = as §1, with “Z-011” for “Z-028”, “ERS12561811” for “ERS12561827”; settings: 2 µM
[14] = as §1, with “WLS-038” for “Z-028”, “human” for “mouse”, “ERS12561745” for “ERS12561827”; settings: 2 µM
[15] = as §1, with “Z-004” for “Z-028”, “to” for “to mouse gut”, “ERS12561804” for “ERS12561827”; settings: 2 µM
[16] = as §1, with “WLS-240” for “Z-028”, “human” for “mouse”, “ERS12561773” for “ERS12561827”; settings: 2 µM
[17] = human gut metagenome, 24 h, 2 µM; remark: listed apart in the source
[18] = as §1, with “Z-025” for “Z-028”, “rabbit” for “mouse”, “ERS12561824” for “ERS12561827”; settings: 2 µM
[19] = as §1, with “Z-017” for “Z-028”, “ERS12561816” for “ERS12561827”; settings: 2 µM
[20] = human gut metagenome, 24 h, 2 µM; remark: listed apart in the source
Also: call rule not given here.

## CC(=O)CCCCn1c(=O)c2c(ncn2C)n(C)c1=O [PENTOXIFYLLINE]
[1]
  Bacterial Biotransformation: Compound NOT metabolized
[2]
  Bacterial Biotransformation: Compound NOT metabolized
[3]
  Bacterial Biotransformation: Compound NOT metabolized
[4]
  Bacterial Biotransformation: Compound NOT metabolized
[5]
  Bacterial Biotransformation: Compound NOT metabolized
[6]
  Bacterial Biotransformation: Compound metabolized
[7]
  Bacterial Biotransformation: Compound NOT metabolized
[8]
  Bacterial Biotransformation: Compound NOT metabolized
[9]
  Bacterial Biotransformation: Compound NOT metabolized
[10]
  Bacterial Biotransformation: Compound NOT metabolized
[11]
  Bacterial Biotransformation: Compound NOT metabolized
[12]
  Bacterial Biotransformation: Compound NOT metabolized
[13]
  Bacterial Biotransformation: Compound NOT metabolized
[14]
  Bacterial Biotransformation: Compound NOT metabolized
[15]
  Bacterial Biotransformation: Compound NOT metabolized
[16]
  Bacterial Biotransformation: Compound metabolized
[17]
  Bacterial Biotransformation: Compound NOT metabolized
[18]
  Bacterial Biotransformation: Compound NOT metabolized
[19]
  Bacterial Biotransformation: Compound NOT metabolized
[20]
  Bacterial Biotransformation: Compound NOT metabolized

## CN[C@H]1CC[C@@H](c2ccc(Cl)c(Cl)c2)c2ccccc21 [SERTRALINE]
[1]
  Bacterial Biotransformation: Compound NOT metabolized
[2]
  Bacterial Biotransformation: Compound NOT metabolized
[3]
  Bacterial Biotransformation: Compound NOT metabolized
[4]
  Bacterial Biotransformation: Compound NOT metabolized
[5]
  Bacterial Biotransformation: Compound NOT metabolized
[6]
  Bacterial Biotransformation: Compound metabolized
[7]
  Bacterial Biotransformation: Compound NOT metabolized
[8]
  Bacterial Biotransformation: Compound metabolized
[9]
  Bacterial Biotransformation: Compound metabolized
[10]
  Bacterial Biotransformation: Compound NOT metabolized
[11]
  Bacterial Biotransformation: Compound NOT metabolized
[12]
  Bacterial Biotransformation: Compound NOT metabolized
[13]
  Bacterial Biotransformation: Compound metabolized
[14]
  Bacterial Biotransformation: Compound metabolized
[15]
  Bacterial Biotransformation: Compound metabolized
[16]
  Bacterial Biotransformation: Compound NOT metabolized
[17]
  Bacterial Biotransformation: Compound metabolized
[18]
  Bacterial Biotransformation: Compound metabolized
[19]
  Bacterial Biotransformation: Compound metabolized
[20]
  Bacterial Biotransformation: Compound metabolized

## CCCN(CCC)CCc1cccc2c1CC(=O)N2 [ROPINIROLE]
[1]
  Bacterial Biotransformation: Compound NOT metabolized
[2]
  Bacterial Biotransformation: Compound NOT metabolized
[3]
  Bacterial Biotransformation: Compound NOT metabolized
[4]
  Bacterial Biotransformation: Compound NOT metabolized
[5]
  Bacterial Biotransformation: Compound NOT metabolized
[6]
  Bacterial Biotransformation: Compound metabolized
[7]
  Bacterial Biotransformation: Compound NOT metabolized
[8]
  Bacterial Biotransformation: Compound NOT metabolized
[9]
  Bacterial Biotransformation: Compound metabolized
[10]
  Bacterial Biotransformation: Compound metabolized
[11]
  Bacterial Biotransformation: Compound NOT metabolized
[12]
  Bacterial Biotransformation: Compound NOT metabolized
[13]
  Bacterial Biotransformation: Compound NOT metabolized
[14]
  Bacterial Biotransformation: Compound NOT metabolized
[15]
  Bacterial Biotransformation: Compound NOT metabolized
[16]
  Bacterial Biotransformation: Compound NOT metabolized
[17]
  Bacterial Biotransformation: Compound NOT metabolized
[18]
  Bacterial Biotransformation: Compound NOT metabolized
[19]
  Bacterial Biotransformation: Compound NOT metabolized
[20]
  Bacterial Biotransformation: Compound NOT metabolized

## CCCN1C[C@H](CSC)C[C@@H]2c3cccc4[nH]cc(c34)C[C@H]21.CS(=O)(=O)O [PERGOLIDE MESYLATE]
[1]
  Bacterial Biotransformation: Compound NOT metabolized
[2]
  Bacterial Biotransformation: Compound NOT metabolized
[3]
  Bacterial Biotransformation: Compound NOT metabolized
[4]
  Bacterial Biotransformation: Compound NOT metabolized
[5]
  Bacterial Biotransformation: Compound NOT metabolized
[6]
  Bacterial Biotransformation: Compound metabolized
[7]
  Bacterial Biotransformation: Compound NOT metabolized
[8]
  Bacterial Biotransformation: Compound NOT metabolized
[9]
  Bacterial Biotransformation: Compound NOT metabolized
[10]
  Bacterial Biotransformation: Compound NOT metabolized
[11]
  Bacterial Biotransformation: Compound NOT metabolized
[12]
  Bacterial Biotransformation: Compound NOT metabolized
[13]
  Bacterial Biotransformation: Compound NOT metabolized
[14]
  Bacterial Biotransformation: Compound NOT metabolized
[15]
  Bacterial Biotransformation: Compound NOT metabolized
[16]
  Bacterial Biotransformation: Compound NOT metabolized
[17]
  Bacterial Biotransformation: Compound NOT metabolized
[18]
  Bacterial Biotransformation: Compound metabolized
[19]
  Bacterial Biotransformation: Compound NOT metabolized
[20]
  Bacterial Biotransformation: Compound NOT metabolized

## CCOc1ccc2nc(S(N)(=O)=O)sc2c1 [ETHOXZOLAMIDE]
[1]
  Bacterial Biotransformation: Compound NOT metabolized
[2]
  Bacterial Biotransformation: Compound NOT metabolized
[3]
  Bacterial Biotransformation: Compound NOT metabolized
[4]
  Bacterial Biotransformation: Compound NOT metabolized
[5]
  Bacterial Biotransformation: Compound NOT metabolized
[6]
  Bacterial Biotransformation: Compound metabolized
[7]
  Bacterial Biotransformation: Compound NOT metabolized
[8]
  Bacterial Biotransformation: Compound NOT metabolized
[9]
  Bacterial Biotransformation: Compound NOT metabolized
[10]
  Bacterial Biotransformation: Compound metabolized
[11]
  Bacterial Biotransformation: Compound NOT metabolized
[12]
  Bacterial Biotransformation: Compound NOT metabolized
[13]
  Bacterial Biotransformation: Compound NOT metabolized
[14]
  Bacterial Biotransformation: Compound NOT metabolized
[15]
  Bacterial Biotransformation: Compound NOT metabolized
[16]
  Bacterial Biotransformation: Compound NOT metabolized
[17]
  Bacterial Biotransformation: Compound NOT metabolized
[18]
  Bacterial Biotransformation: Compound NOT metabolized
[19]
  Bacterial Biotransformation: Compound NOT metabolized
[20]
  Bacterial Biotransformation: Compound NOT metabolized

## CC(N)C12CC3CC(CC(C3)C1)C2 (stereo not given) [RIMANTADINE]
[1]
  Bacterial Biotransformation: Compound NOT metabolized
[2]
  Bacterial Biotransformation: Compound NOT metabolized
[3]
  Bacterial Biotransformation: Compound NOT metabolized
[4]
  Bacterial Biotransformation: Compound NOT metabolized
[5]
  Bacterial Biotransformation: Compound metabolized
[6]
  Bacterial Biotransformation: Compound NOT metabolized
[7]
  Bacterial Biotransformation: Compound NOT metabolized
[8]
  Bacterial Biotransformation: Compound NOT metabolized
[9]
  Bacterial Biotransformation: Compound NOT metabolized
[10]
  Bacterial Biotransformation: Compound NOT metabolized
[11]
  Bacterial Biotransformation: Compound NOT metabolized
[12]
  Bacterial Biotransformation: Compound NOT metabolized
[13]
  Bacterial Biotransformation: Compound NOT metabolized
[14]
  Bacterial Biotransformation: Compound NOT metabolized
[15]
  Bacterial Biotransformation: Compound NOT metabolized
[16]
  Bacterial Biotransformation: Compound NOT metabolized
[17]
  Bacterial Biotransformation: Compound NOT metabolized
[18]
  Bacterial Biotransformation: Compound NOT metabolized
[19]
  Bacterial Biotransformation: Compound NOT metabolized
[20]
  Bacterial Biotransformation: Compound NOT metabolized

## CCOC(=O)C1=C[C@]2(CC)CCCN3CCc4c(n1c1ccccc41)[C@@H]32 [VINPOCETINE]
[1]
  Bacterial Biotransformation: Compound NOT metabolized
[2]
  Bacterial Biotransformation: Compound NOT metabolized
[3]
  Bacterial Biotransformation: Compound metabolized
[4]
  Bacterial Biotransformation: Compound NOT metabolized
[5]
  Bacterial Biotransformation: Compound metabolized
[6]
  Bacterial Biotransformation: Compound metabolized
[7]
  Bacterial Biotransformation: Compound NOT metabolized
[8]
  Bacterial Biotransformation: Compound metabolized
[9]
  Bacterial Biotransformation: Compound NOT metabolized
[10]
  Bacterial Biotransformation: Compound metabolized
[11]
  Bacterial Biotransformation: Compound NOT metabolized
[12]
  Bacterial Biotransformation: Compound metabolized
[13]
  Bacterial Biotransformation: Compound NOT metabolized
[14]
  Bacterial Biotransformation: Compound NOT metabolized
[15]
  Bacterial Biotransformation: Compound NOT metabolized
[16]
  Bacterial Biotransformation: Compound metabolized
[17]
  Bacterial Biotransformation: Compound NOT metabolized
[18]
  Bacterial Biotransformation: Compound NOT metabolized
[19]
  Bacterial Biotransformation: Compound NOT metabolized
[20]
  Bacterial Biotransformation: Compound metabolized

## O=C1C(CC[S+]([O-])c2ccccc2)C(=O)N(c2ccccc2)N1c1ccccc1 (stereo not given) [SULFINPYRAZONE]
[1]
  Bacterial Biotransformation: Compound metabolized
[2]
  Bacterial Biotransformation: Compound NOT metabolized
[3]
  Bacterial Biotransformation: Compound metabolized
[4]
  Bacterial Biotransformation: Compound NOT metabolized
[5]
  Bacterial Biotransformation: Compound NOT metabolized
[6]
  Bacterial Biotransformation: Compound metabolized
[7]
  Bacterial Biotransformation: Compound metabolized
[8]
  Bacterial Biotransformation: Compound metabolized
[9]
  Bacterial Biotransformation: Compound NOT metabolized
[10]
  Bacterial Biotransformation: Compound metabolized
[11]
  Bacterial Biotransformation: Compound metabolized
[12]
  Bacterial Biotransformation: Compound metabolized
[13]
  Bacterial Biotransformation: Compound NOT metabolized
[14]
  Bacterial Biotransformation: Compound metabolized
[15]
  Bacterial Biotransformation: Compound NOT metabolized
[16]
  Bacterial Biotransformation: Compound metabolized
[17]
  Bacterial Biotransformation: Compound metabolized
[18]
  Bacterial Biotransformation: Compound NOT metabolized
[19]
  Bacterial Biotransformation: Compound NOT metabolized
[20]
  Bacterial Biotransformation: Compound metabolized
